Measured values from ChEMBL document CHEMBL5576059, “Design, synthesis and molecular docking study of novel triazole-quinazolinone hybrids as antimalarial and antitubercular agents” (Bioorg Med Chem Lett, 2024).
≈ marks a conversion by molar mass, not a printed value.

What was measured:
[1] = system: Mycobacterium tuberculosis; assay: Antitubercular activity against Mycobacterium tuberculosis H37RV ATCC27294 assessed as inhibition of bacterial growth by MABA assay; format: functional
Plasmodium falciparum = assay: Antimalarial activity against Plasmodium falciparum assessed as inhibition of parasite growth; format: functional, organism-based
RAW264.7 = assay: Cytotoxicity against mouse RAW264.7 cells at 25 microg/ml by MTT assay; format: toxicity, cell-based; conditions: dose 25 µg/ml
[2] = Cytotoxicity against mouse RAW264.7 cells assessed as inhibition of cell growth at 78.29 uM by MTT assay relative to control; format: toxicity, cell-based
[3] = Cytotoxicity against mouse RAW264.7 cells assessed as inhibition of cell growth at 66.37 uM by MTT assay relative to control; format: toxicity, cell-based
[4] = Cytotoxicity against mouse RAW264.7 cells assessed as inhibition of cell growth at 81.35 uM by MTT assay relative to control; format: toxicity, cell-based

With `Cc1ccc(-n2cc(-c3nc4ccccc4c(=O)[nH]3)nn2)cc1` the MIC [1] was > 82.4 µM, the IC50 (Plasmodium falciparum) was 3100 nM and the Activity (RAW264.7) was “Non-Toxic”.
In the case of `O=c1[nH]c(-c2cn(-c3ccc(F)cc3)nn2)nc2ccccc12`, the MIC [1] is reported as > 81.4 µM, the IC50 (Plasmodium falciparum) is reported as 1950 nM and the Activity (RAW264.7) is reported as “Non-Toxic”.
For `Cc1cc(C)c(-n2cc(-c3nc4ccccc4c(=O)[nH]3)nn2)c(C)c1`, the MIC [1] was > 75.4 µM, the IC50 (Plasmodium falciparum) was 2900 nM and the Activity (RAW264.7) was “Non-Toxic”.
In the case of `CCc1ccc(-n2cc(-c3nc4ccccc4c(=O)[nH]3)nn2)cc1`, the MIC [1] is reported as 78.8 µM (≈ 25 µg/mL), the IC50 (Plasmodium falciparum) is reported as 3250 nM and the Activity (RAW264.7) is reported as “Non-Toxic”.
For `O=c1[nH]c(-c2cn(-c3ccc(Cl)cc3)nn2)nc2ccccc12`, the MIC [1] was 77.2 µM (≈ 25 µg/mL), the IC50 (Plasmodium falciparum) was 1920 nM and the Activity (RAW264.7) was “Non-Toxic”.
For `Cc1ccc(-n2cc(-c3nc4ccccc4c(=O)[nH]3)nn2)c([N+](=O)[O-])c1`, the MIC [1] was > 71.8 µM, the IC50 (Plasmodium falciparum) was 2350 nM and the Activity (RAW264.7) was “Non-Toxic”.
For `O=c1[nH]c(-c2cn(-c3ccccc3)nn2)nc2ccccc12`, the MIC [1] was > 86.4 µM, the IC50 (Plasmodium falciparum) was 2560 nM and the Activity (RAW264.7) was “Non-Toxic”.
In the case of `O=c1[nH]c(-c2cn(-c3ccc([N+](=O)[O-])cc3)nn2)nc2ccccc12`, the MIC [1] is reported as 74.8 µM (≈ 25 µg/mL), the IC50 (Plasmodium falciparum) is reported as 1970 nM and the Activity (RAW264.7) is reported as “Non-Toxic”.
For `COc1ccc(-n2cc(-c3nc4ccccc4c(=O)[nH]3)nn2)cc1`, the MIC [1] was 19.6 µM (≈ 6.25 µg/mL), the IC50 (Plasmodium falciparum) was 2630 nM and the inhibition at 78.29 µM [2] was 24.3%.
Work on `O=c1[nH]c(-c2cn(-c3ccc(Br)cc3)nn2)nc2ccccc12` yielded an MIC [1] of 33.2 µM (≈ 12.2 µg/mL), an inhibition at 66.37 µM [3] of 29.8% and an IC50 (Plasmodium falciparum) of 1960 nM.
`O=c1[nH]c(-c2cn(-c3ccccc3F)nn2)nc2ccccc12` showed an inhibition at 81.35 µM [4] of 27.2%, an MIC [1] of 40.7 µM (≈ 12.5 µg/mL) and an IC50 (Plasmodium falciparum) of 2210 nM.
In the case of `O=c1[nH]c(-c2cn(-c3cccc(Cl)c3)nn2)nc2ccccc12`, the MIC [1] is reported as > 77.2 µM, the IC50 (Plasmodium falciparum) is reported as 2780 nM and the Activity (RAW264.7) is reported as “Non-Toxic”.
For `CC[C@@H](CO)NCCN[C@@H](CC)CO` [ETHAMBUTOL], the MIC [1] was 7.64 µM (≈ 1.56 µg/mL).
Work on `C=C[C@H]1CN2CC[C@H]1C[C@H]2[C@H](O)c1ccnc2ccc(OC)cc12` [QUININE] yielded an IC50 (Plasmodium falciparum) of 826 nM.
`CO[C@H]1/C=C/O[C@@]2(C)Oc3c(C)c(O)c4c(O)c(c(/C=N/N5CCN(C)CC5)c(O)c4c3C2=O)NC(=O)/C(C)=C\C=C\[C@H](C)[C@H](O)[C@@H](C)[C@@H](O)[C@@H](C)[C@H](OC(C)=O)[C@@H]1C` [RIFAMPIN] showed an MIC [1] of 0.13 µM (≈ 0.107 µg/mL).
